The values that follow come from PMC2885425, “Complete Phenotypic Recovery of an Alzheimer's Disease Model by a Quinone-Tryptophan Hybrid Aggregation Inhibitor” (PLoS ONE, 2010).

Experiment [1] has as its target T1, β-amyloid polypeptide (Aβ1–42) (Homo sapiens, UniProt P05067).
T1 construct: gene APP; Aβ1–42 (synthetic, early oligomeric assemblies); NMR with Aβ12–28
Description: fluorescence anisotropy titration (Aβ[…] early assemblies); supported by 1H-NMR shift perturbation with Aβ[…] and ThT fibril inhibition (IC50 […]). It is filed as binding. A general note: In fluorescence polarisation assays a small probe gives low polarisation when free and higher when bound to something large.

The target in experiment [2] is Arctic (Arc) (E22G) mutant form of Aβ1–42 (human). Description: immunoprecipitation with antibody 6E10 and western blot of SDS-stable oligomers; head extracts (PBS, protease inhibitor, 1% SDS) of 6 day old Aβarc1-42-expressing flies on regular food; samples boiled. (In general: Immunoblotting shows a protein as a band on a membrane.)

T1 sequence (P05067 672-713): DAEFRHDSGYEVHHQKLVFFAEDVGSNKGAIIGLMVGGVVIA

`O=C1C=C(N[C@@H](Cc2c[nH]c3ccccc23)C(=O)O)C(=O)c2ccccc21` [IL, 1,4-naphthoquinon-2-yl-L-tryptophan]: the Kd – broadly, the free concentration of one partner at which half of the binding sites on the other are occupied at equilibrium, for simple one-to-one binding – in experiment [1] was roughly 90 nM.

Take “Arctic (Arc) (E22G) mutant form of Aβ1–42 (peptide)”: in experiment [2], the stoichiometry N (in general, the number of molecules, sites or subunits per partner or assembly) amounted to 4.
